In US9302999B2, “Substituted triazoles as herbicides” (E. I. DU PONT DE NEMOURS AND COMPANY, priority 2012, dated 2016):

Key:
Assay type in all cases: in vivo
[1] = tested on: ryegrass, Italian (Italian ryegrass, Lolium multiflorum); assay: Test C pre-/postemergence: ryegrass, Italian
Summary of the method: (§1)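 Visual injury scored 0–100 (100 = complete control) against untreated controls after 13–15 greenhouse days. Surfactant-containing solvent formulations applied either to soil after sowing (loam/sand) or over 1- to 4-leaf plants, 2–18 cm tall.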

[2] = tested on: morningglory (Ipomoea coccinea); assay: Test C pre-/postemergence: morningglory
From the text: (§2) Seeds of plant species selected from blackgrass (Alopecurus myosuroides), bromegrass, downy (downy bromegrass, Bromus tectorum), foxtail, green (green foxtail, Setaria viridis), ryegrass, Italian (Italian ryegrass, Lolium multiflorum), winter wheat (Triticum aestivum), wild oat (Avena fatua), galium (catchweed bedstraw, Galium aparine), bermudagrass (Cynodon dactylon), surinam grass (Brachiaria decumbens), cocklebur (common cocklebur, Xanthium strumarium), corn (Zea mays), large crabgrass (Digitaria sanguinalis), woolly cupgrass (Eriochloa villosa), foxtail, giant (giant foxtail, Setaria faberii), goosegrass (Eleusine indica), johnsongrass (Sorghum halepense), kochia (Kochia scoparia), lambsquarters (Chenopodium album), morningglory (Ipomoea coccinea), nightshade (eastern black nightshade, Solanum ptycanthum), nutsedge, yellow (yellow nutsedge, Cyperus esculentus), pigweed (Amaranthus retroflexus), ragweed (common ragweed, Ambrosia elation), soybean (Glycine max), common (oilseed) sunflower (Helianthus annuus), Russian thistle (Salsola kali) and velvetleaf (Abutilon theophrasti) were planted into a blend of loam soil and sand and treated preemergence with test chemicals formulated in a non-phytotoxic solvent mixture which included a surfactant.
(§3) At the same time, plants selected from these crop and weed species and also barley (winter barley, Hordeum vulgare), canarygrass (Phalaris minor), chickweed (common chickweed, Stellaria media) windgrass (Apera spica-venti) and deadnettle (henbit deadnettle, Lamium amplexicaule) were planted in pots containing Redi-Earth® planting medium (Scotts Company, 14111 Scottslawn Road, Marysville, Ohio 43041) comprising spaghnum peat moss, vermiculite, wetting agent and starter nutrients and treated with postemergence applications of test chemicals formulated in the same manner. Plants ranged in height from 2 to 18 cm (1- to 4-leaf stage) for postemergence treatments.
(§4) Treated plants and controls were maintained in a greenhouse for 13 to 15 days, after which time all species were compared to controls and visually evaluated. Plant response ratings, summarized in Table C, are based on a scale of 0 to 100 where 0 is no effect and 100 is complete control. A dash (-) response means no test result.

[3] = tested on: velvetleaf (Abutilon theophrasti); assay: Test A pre-/postemergence: velvetleaf
Summary of the method: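 Pre: directed soil spray after planting in loam + sand. Post: same formulation (non-phytotoxic solvent + surfactant) on 1–2-leaf plants, 2–10 cm. Greenhouse ~10 d; visual injury 0–100 vs untreated.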

[4] = tested on: winter wheat (Triticum aestivum); assay: Test C pre-/postemergence: winter wheat
Summary of the method: as §1

[5] = tested on: large crabgrass (Digitaria sanguinalis); assay: Test C pre-/postemergence: large crabgrass
Summary of the method: as §1

[6] = tested on: blackgrass (Alopecurus myosuroides); assay: Test C pre-/postemergence: blackgrass
Summary of the method: as §1

corn (Zea mays) = assay: Test C pre-/postemergence: corn
From the text: as §2, §3, §4

[7] = tested on: chickweed (common chickweed, Stellaria media); assay: Test C postemergence: chickweed
From the text: as §3, §4

[8] = Postemergence, 31 g ai/ha, scale 0 to 100 (0 no effect, 100 complete control)
[9] = Postemergence, 62 g ai/ha, scale 0 to 100 (0 no effect, 100 complete control)
[10] = Postemergence, 125 g ai/ha, scale 0 to 100, 0 no effect, 100 complete control
[11] = Postemergence, 250 g ai/ha, scale 0 to 100
[12] = Preemergence, 31 g ai/ha, scale of 0 to 100, 0 is no effect, 100 is complete control
[13] = Preemergence, 62 g ai/ha, scale of 0 to 100, 0 is no effect, 100 is complete control
[14] = Preemergence, 125 g ai/ha, scale 0 to 100, 0 no effect, 100 complete control
[15] = Preemergence, 250 g ai/ha, scale 0 to 100, 0 no effect, 100 complete control
[16] = Preemergence, 62 g ai/ha, scale 0 to 100, 0 no effect, 100 complete control
[17] = 31 g ai/ha, scale 0 to 100 (0 no effect, 100 complete control)
[18] = 62 g ai/ha, scale 0 to 100 (0 no effect, 100 complete control)
[19] = 125 g ai/ha, scale 0 to 100, 0 no effect, 100 complete control

Cc1nn(-c2ccc(C(F)(F)F)cn2)nc1Cc1cccc(C(F)(F)F)c1 [Compound 106]
50: Plant response rating, Ryegrass, Italian [1, 15] | Plant response rating, Blackgrass [6, 12] | Plant response rating, Blackgrass [6, 16]
10: Plant response rating, Morningglory [2, 14] | Plant response rating, Wheat [4, 8] | Plant response rating, Corn (corn (Zea mays); [8]) | Plant response rating, Corn (corn (Zea mays); [15])
65: Plant response rating, Crabgrass, Large [5, 10] | Plant response rating, Crabgrass, Large [5, 11]
20: Plant response rating, Ryegrass, Italian [1, 10] | Plant response rating, Ryegrass, Italian [1, 13] | Plant response rating, Morningglory [2, 9]
5: Plant response rating, Ryegrass, Italian [1, 8] | Plant response rating, Ryegrass, Italian [1, 9] | Plant response rating, Ryegrass, Italian [1, 12] | Plant response rating, Wheat [4, 15]
15: Plant response rating, Corn (corn (Zea mays); [9]) | Plant response rating, Corn (corn (Zea mays); [10])
30: Plant response rating, Ryegrass, Italian [1, 11] | Plant response rating, Wheat [4, 9] | Plant response rating, Wheat [4, 10] | Plant response rating, Blackgrass [6, 8]
60: Plant response rating, Morningglory [2, 15] | Plant response rating, Blackgrass [6, 11] | Plant response rating, Chickweed [7, 17]
40: Plant response rating, Morningglory [2, 10] | Plant response rating, Morningglory [2, 11] | Plant response rating, Crabgrass, Large [5, 8] | Plant response rating, Blackgrass [6, 9]
70: Velvetleaf plant response rating ([3]; Postemergence, 1000 g ai/ha, visual rating on 0 to 100 scale (0 no effect, 100 complete control), approximately ten days) | Plant response rating, Chickweed [7, 18]
98: Plant response rating, Chickweed ([7]; 250 g ai/ha, scale 0 to 100)
100: Plant response rating, Crabgrass, Large [5, 12] | Plant response rating, Crabgrass, Large [5, 13] | Plant response rating, Crabgrass, Large [5, 14] | Plant response rating, Crabgrass, Large [5, 15]
95: Plant response rating, Blackgrass [6, 15] | Plant response rating, Chickweed [7, 19]
90: Plant response rating, Blackgrass [6, 14]
55: Plant response rating, Crabgrass, Large [5, 9] | Plant response rating, Corn (corn (Zea mays); [11])
45: Plant response rating, Ryegrass, Italian [1, 14] | Plant response rating, Blackgrass [6, 10]
0: Plant response rating, Morningglory [2, 8] | Plant response rating, Morningglory [2, 12] | Plant response rating, Morningglory [2, 13] | Velvetleaf plant response rating ([3]; Preemergence, 1000 g ai/ha, 0 to 100 scale, 0 is no effect, 100 is complete control) | Plant response rating, Wheat [4, 12] | Plant response rating, Wheat [4, 13] | Plant response rating, Wheat [4, 14] | Plant response rating, Corn (corn (Zea mays); [12]) | Plant response rating, Corn (corn (Zea mays); [16]) | Plant response rating, Corn (corn (Zea mays); [14])

Cc1nn(-c2ccc(C(F)(F)F)cc2)nc1Oc1ccnc(C(F)(F)F)c1 [Compound 120]
0: Plant response rating, Corn (corn (Zea mays); [12])
30: Plant response rating, Ryegrass, Italian [1, 11] | Plant response rating, Blackgrass [6, 9]
40: Plant response rating, Ryegrass, Italian [1, 12] | Plant response rating, Velvetleaf ([3]; Preemergence, 125 g ai/ha, 0 to 100 scale where 0 is no effect and 100 is complete control) | Plant response rating, Wheat [4, 14]
80: Velvetleaf plant response rating ([3]; Postemergence, 500 g ai/ha, visual rating on 0 to 100 scale (0 no effect, 100 complete control), approximately ten days)
10: Plant response rating, Wheat [4, 8] | Plant response rating, Wheat [4, 9] | Plant response rating, Corn (corn (Zea mays); [9]) | Plant response rating, Corn (corn (Zea mays); [10]) | Plant response rating, Corn (corn (Zea mays); [11])
5: Plant response rating, Ryegrass, Italian [1, 8] | Plant response rating, Ryegrass, Italian [1, 9] | Plant response rating, Ryegrass, Italian [1, 10] | Plant response rating, Wheat [4, 12] | Plant response rating, Crabgrass, Large [5, 8] | Plant response rating, Corn (corn (Zea mays); [8]) | Plant response rating, Corn (corn (Zea mays); [16])
25: Plant response rating, Wheat [4, 13] | Plant response rating, Crabgrass, Large [5, 9] | Plant response rating, Crabgrass, Large [5, 10] | Plant response rating, Blackgrass [6, 8] | Plant response rating, Corn (corn (Zea mays); [14])
85: Plant response rating, Blackgrass [6, 11]
98: Plant response rating, Morningglory [2, 11]
35: Plant response rating, Wheat [4, 10] | Plant response rating, Wheat [4, 11]
45: Plant response rating, Morningglory [2, 12] | Plant response rating, Morningglory [2, 13] | Plant response rating, Morningglory [2, 14] | Plant response rating, Crabgrass, Large [5, 11]
95: Plant response rating, Ryegrass, Italian [1, 15]
70: Plant response rating, Velvetleaf ([3]; Preemergence, 500 g ai/ha, 0 to 100 scale (0 no effect, 100 complete control))
90: Plant response rating, Ryegrass, Italian [1, 13] | Plant response rating, Ryegrass, Italian [1, 14] | Plant response rating, Morningglory [2, 15] | Plant response rating, Blackgrass [6, 12] | Plant response rating, Blackgrass [6, 16] | Plant response rating, Blackgrass [6, 14] | Plant response rating, Blackgrass [6, 15]
60: Plant response rating, Morningglory [2, 8] | Plant response rating, Morningglory [2, 9] | Plant response rating, Blackgrass [6, 10]
75: Plant response rating, Chickweed [7, 17]
50: Velvetleaf plant response rating ([3]; Postemergence, 125 g ai/ha, 0 to 100 scale, 0 is no effect, 100 is complete control) | Plant response rating, Wheat [4, 15] | Plant response rating, Corn (corn (Zea mays); [15])
100: Plant response rating, Crabgrass, Large [5, 12] | Plant response rating, Crabgrass, Large [5, 13] | Plant response rating, Crabgrass, Large [5, 14] | Plant response rating, Crabgrass, Large [5, 15] | Plant response rating, Chickweed [7, 18] | Plant response rating, Chickweed [7, 19] | Plant response rating, Chickweed ([7]; 250 g ai/ha, scale 0 to 100)
65: Plant response rating, Morningglory [2, 10]
